From patent publication US9422292B2, “Bromodomain inhibitors and uses thereof” (Constellation Pharmaceuticals, Inc., priority 2011, dated 2016)
Read-outs that look alike come from different tables or passages of the source.

Assays:
BRD4 (BD1) = target: T1, BRD4 (BD1) (Homo sapiens, UniProt O60885); assay: BRD4 AlphaLisa binding assay
T1 construct: His; made in house
Protocol: A. IC50 Measurements for Inhibitors Using BRD4 AlphaLisa Binding Assay.
Specifically, in a 384 well ProxiPlate BRD4 (BD1) (30 nM final) was combined with peptide (200 nM final) in 40 mM HEPES (pH 7.0), 40 mM NaCl, 1 mM DTT, 0.01% (w/v) BSA, and 0.008% (w/v) Brij-35 either in the presence of DMSO (final 1.2% DMSO) or compound dilution series in DMSO. After 20 minute incubation at room temperature Alpha streptavidin donor beads and AlphaLisa anti-Flag acceptor beads were added to a final concentration of 10 ug/mL each. After three hours equilibration plates were read on an Envision instrument and IC50s calculated using a four parameter non-linear curve fit.

[1] = test system: IL-6 secretion in THP-1 cells; assay: Cell-based IL-6 quantification assay (ELISA, Mesoscale) in LPS-treated THP-1 cells; details: Homo sapiens, LPS 4 μg/mL, 16 h, ELISA value/CellTiter-Glo ratio
Protocol: C. Cell-Based IL-6 Quantification Assay (ELISA, Mesoscale Assay):
100,000 THP-1 cells were seeded in RPMI1640-10% FBS in 96-well plates. LPS (E. Coli Invitrogen) in RPMI−10% FBS at a final concentration of 4 μg/mL was added to the wells and the cells are then incubated in the presence of various concentrations of compounds for 16 h. Plates are spun ([…], 5 min), an aliquot of 25 uL supernatant is transferred in to an ELISA plate (Mesoscale technology, MSD) and the detection of IL-6 is performed using manufacturer's instructions. The amount of cells in each well is assessed using CellTiter-Glo® (Promega). The ratio of ELISA value/CellTiter-Glo value is used to calculate the percent of inhibition of IL-6 secretion.

[2] = test system: MYC mRNA in MV4:11 (AML) cells; assay: cMyc RNA quantification assay (QuantiGene) in MV4:11 cells; format: cell-based; details: Homo sapiens, 4 h, QuantiGene 2.0
Protocol: B. cMyc RNA Quantification Assay (QuantiGene® Assay):
MV4:11 (AML) cells were seeded in a 96-well plate and incubated in the presence of various concentrations of compounds for 4 h. Relative mRNA levels were quantitated by using QuantiGene 2.0 assay (Affymetrix) according to the manufacturer's recommendation. Signals were detected by using an Envision plate reader (Perkin-Elmer). Biological duplicates were averaged and normalized to vehicle (DMSO) control to calculate percent MYC mRNA levels.

[3] = BRD4 (BD1) 30 nM, biotinylated H4-tetraacetyl peptide 200 nM, read-out: BRD4 AlphaLisa

SMILES	IC50 (BRD4 (BD1); [3]) [nM]	IC50 [1] [nM]	IC50 [2] [nM]	IC50 (BRD4 (BD1)) [nM]
Cc1nnc2n1-c1ccc(-c3ccc(N)nc3)cc1N(c1ccc(C(N)=O)cc1)CC2C (stereo in doubt) [Compound 69, (R)-4-(8-(6-aminopyridin-3-yl)-1,4-dimethyl-4H-benzo[b][1,2,4]triazolo[4,3-d][1,4]diazepin-6(5H)-yl)benzamide]	100 to 1000	1000 to 10000	1000 to 10000	–
Cc1nnc2n1-c1ccc(-c3ccc(N)nc3)cc1N(c1ccc(C(N)=O)cc1)CC2C (stereo in doubt) [Compound 70, (S)-4-(8-(6-aminopyridin-3-yl)-1,4-dimethyl-4H-benzo[b][1,2,4]triazolo[4,3-d][1,4]diazepin-6(5H)-yl)benzamide]	< 100	1000 to 10000	1000 to 10000	–
Cc1nnc2n1-c1ccccc1N(c1ccc(Cl)cc1)CC2C (stereo not shown) [Compound 1, 6-(4-chlorophenyl)-1,4-dimethyl-5,6-dihydro-4H-benzo[b][1,2,4]triazolo[4,3-d][1,4]diazepine]	–	100 to 1000	100 to 1000	100 to 1000
Cc1nnc2n1-c1ccccc1N(c1ccc(Cl)cc1)CC2 [Compound 2, 6-(4-chlorophenyl)-1-methyl-5,6-dihydro-4H-benzo[b][1,2,4]triazolo[4,3-d][1,4]diazepine]	–	1000 to 10000	1000 to 10000	100 to 1000
Cc1nnc2n1-c1ccc(-c3ccccc3)cc1N(C)CC2 [Compound 4, 1,6-dimethyl-8-phenyl-5,6-dihydro-4H-benzo[b][1,2,4]triazolo[4,3-d][1,4]diazepine]	> 10000	> 10000	–	–
Cc1nnc2n1-c1ccc(-c3ccc(N)nc3)cc1N(C)CC2 [Compound 5, 5-(1,6-dimethyl-5,6-dihydro-4H-benzo[b][1,2,4]triazolo[4,3-d][1,4]diazepin-8-yl)pyridin-2-amine]	1000 to 10000	1000 to 10000	–	–
Cc1nnc2n1-c1ccc(-c3ccc(N)nc3)cc1NCC2 [Compound 6, 5-(1-methyl-5,6-dihydro-4H-benzo[b][1,2,4]triazolo[4,3-d][1,4]diazepin-8-yl)pyridin-2-amine]	1000 to 10000	> 10000	–	–
Cc1nnc2n1-c1ccc(-c3ccccc3)cc1NCC2 [Compound 7, 1-methyl-8-phenyl-5,6-dihydro-4H-benzo[b][1,2,4]triazolo[4,3-d][1,4]diazepine]	> 10000	> 1000	–	–
Cc1nnc2n1-c1ccccc1N(c1ccc(Cl)cn1)CC2 [Compound 8, 6-(5-chloropyridin-2-yl)-1-methyl-5,6-dihydro-4H-benzo[b][1,2,4]triazolo[4,3-d][1,4]diazepine]	1000 to 10000	1000 to 10000	–	–
Cc1nnc2n1-c1ccccc1N(c1ccc(Cl)cc1)CC2CCO (stereo not shown) [Compound 9, 2-(6-(4-chlorophenyl)-1-methyl-5,6-dihydro-4H-benzo[b][1,2,4]triazolo[4,3-d][1,4]diazepin-4-yl)ethanol]	1000 to 10000	1000 to 10000	–	–
CCNC(=O)CC1CN(c2ccc(Cl)cc2)c2ccccc2-n2c(C)nnc21 (stereo not shown) [Compound 10, 2-(6-(4-chlorophenyl)-1-methyl-5,6-dihydro-4H-benzo[b][1,2,4]triazolo[4,3-d][1,4]diazepin-4-yl)-N-ethylacetamide]	1000 to 10000	1000 to 10000	–	–
Cc1nnc2n1-c1ccccc1N(c1ccc(Cl)cc1)CC21CC1CO (stereo not shown) [Compound 11, (6-(4-chlorophenyl)-1-methyl-5,6-dihydrospiro[benzo[b][1,2,4]triazolo[4,3-d][1,4]diazepine-4,1′-cyclopropan]-2′-yl)methanol]	1000 to 10000	1000 to 10000	–	–
Cc1nnc2n1-c1ccccc1NC(C)C2 (stereo not shown) [Compound 12, 1,5-dimethyl-5,6-dihydro-4H-benzo[b][1,2,4]triazolo[4,3-d][1,4]diazepine]	> 10000	> 10000	–	–
Cc1nnc2n1-c1ccc(Br)cc1N(c1ccc(Cl)cc1)CC2 [Compound 13, 8-bromo-6-(4-chlorophenyl)-1-methyl-5,6-dihydro-4H-benzo[b][1,2,4]triazolo[4,3-d][1,4]diazepine]	100 to 1000	100 to 1000	–	–
Cc1nnc2n1-c1ccc(-c3ccccc3)cc1N(c1ccc(Cl)cc1)CC2 [Compound 14, 6-(4-chlorophenyl)-1-methyl-8-phenyl-5,6-dihydro-4H-benzo[b][1,2,4]triazolo[4,3-d][1,4]diazepine]	100 to 1000	1000 to 10000	–	–
Cc1nnc2n1-c1ccc(-c3cnn(C)c3)cc1N(c1ccc(Cl)cc1)CC2 [Compound 30, 4H-[1,2,4]triazolo[4,3-a][1,5]benzodiazepine,5,6-dihydro-1methyl-8-(1-methyl-1H-pyrazol-4-yl)-6-(4-chloro-phenyl)]	< 100	–	–	–
Cc1nnc2n1-c1ccc(C#CC(C)(C)N)cc1N(c1ccc(Cl)cc1)CC2C (stereo not shown) [Compound 31, 4H-[1,2,4]triazolo[4,3-a][1,5]benzodiazepine,5,6-dihydro-1,4-dimethyl-8-(3-amino-3-methylbut-1-ynyll)-6-(4-chloro-phenyl)]	100 to 1000	–	–	–
CCC1CN(c2ccc(Cl)cc2)c2ccccc2-n2c(C)nnc21 (stereo not shown) [Compound 32]	–	–	–	1000 to 10000
Cc1nnc2n1-c1ccc(Br)cc1N(c1ccc(Cl)cc1)CC21CC1 [Compound 33, 8-bromo-6-(4-chlorophenyl)-1-methyl-5,6-dihydrospiro[benzo[b][1,2,4]triazolo[4,3-d][1,4]diazepine-4,1′-cyclopropane]]	100 to 1000	–	–	–
Cc1nnc2n1-c1ccccc1N(c1ccc(Cl)cc1)CC21CC1 [Compound 34, 6-(4-chlorophenyl)-1-methyl-5,6-dihydrospiro[benzo[b][1,2,4]triazolo[4,3-d][1,4]diazepine-4,1′-cyclopropane]]	100 to 1000	–	–	–
Cc1nnc2n1-c1cc(F)ccc1N(c1ccc(Cl)cc1)CC2C (stereo not shown) [Compound 35, 4H-[1,2,4]triazolo[4,3-a][1,5]benzodiazepine,5,6-dihydro-1,4-dimethyl-9-fluoro-6-(4-chloro-phenyl)]	100 to 1000	–	–	–
Cc1nnc2n1-c1ccc(C#CC(C)(C)O)cc1N(c1ccc(Cl)cc1)CC2C (stereo not shown) [Compound 36, 4H-[1,2,4]triazolo[4,3-a][1,5]benzodiazepine,5,6-dihydro-1,4-dimethyl-8-(3-hydroxy-3-methylbut-1-ynyl)-6-(4-chloro-phenyl)]	100 to 1000	–	–	–
Cc1nnc2n1-c1ccc(-c3cnc(N)nc3)cc1N(c1ccc(Cl)cc1)C[C@@H]2C [Compound 40, (S)-4H-[1,2,4]triazolo[4,3-a][1,5]benzodiaze-pine,5,6-dihydro-1,4-dimethyl-8-(2-aminopyrimidin-5-yl)-6-(4-chloro-phenyl)]	1000 to 10000	> 1000	–	–
Cc1nnc2n1-c1ccc(-c3cnn(C)c3)cc1N(c1ccc(C#N)cc1)C[C@@H]2C [Compound 45, (S)-4H-[1,2,4]triazolo[4,3-a][1,5]benzodiazepine,5,6-dihydro-1,4-dimethyl-8-(1-methyl-1H-pyrazol-4-yl)-6-(4-cyano-phenyl)]	100 to 1000	> 1000	–	–
Cc1nnc2n1-c1ccc(C(=O)N3CCOCC3)cc1N(c1ccc(Cl)cc1)C[C@H]2C [Compound 56, 4-R-4H-[1,2,4]triazolo[4,3-a][1,5]benzodiazepine,5,6-dihydro-1,4-dimethyl-8-(morpholine-4-carbonyl)-6-(4-chloro-phenyl)]	100 to 1000	> 1000	–	–
Cc1nnc2n1-c1ccc(-c3cnn(C)n3)cc1N(c1ccc(C#N)cc1)C[C@@H]2C [Compound 74, (R)-4H-[1,2,4]Triazolo[4,3-a][1,5]benzodiazepine, 5,6-dihydro-1,4-dimethyl-8-(2-methyl-2H-1,2,3-triazole-4-yl)-6-(4-cyano-phenyl)]	100 to 1000	> 1000	–	–
Cc1nnc2n1-c1ccc(-c3ccc(N)nc3)cc1N(c1cnn(C)c1)C[C@H]2C [Compound 76, (R)-5-(1,4-dimethyl-6-(1-methyl-1H-pyrazol-4-yl)-5,6-dihydro-4H-benzo[b][1,2,4]triazolo[4,3-d][1,4]diazepin-8-yl)pyridin-2-amine]	–	100 to 1000	100 to 1000	–
Cc1nnc2n1-c1ccc(-c3ccc(=O)[nH]c3)cc1N(c1ccc(S(C)(=O)=O)cc1)C[C@H]2C [Compound 78, (R)-5-(1,4-dimethyl-6-(4-(methylsulfonyl)phenyl)-5,6-dihydro-4H-benzo[b][1,2,4]triazolo[4,3-d][1,4]diazepin-8-yl)pyridin-2(1H)-one]	100 to 1000	–	1000 to 10000	–
Cc1nnc2n1-c1ccc(-c3cnc(N)cn3)cc1N(c1ccc(S(C)(=O)=O)cc1)C[C@H]2C [Compound 79, (R)-5-(1,4-dimethyl-6-(4-(methylsulfonyl)phenyl)-5,6-dihydro-4H-benzo[b][1,2,4]triazolo[4,3-d][1,4]diazepin-8-yl)pyrazin-2-amine]	< 100	–	100 to 1000	–
